Data as given in paper PMC7292872 (Saudi Pharmaceutical Journal : SPJ, 2020).

Molecular target: Human serum albumin (HSA) (Homo sapiens, UniProt P02768)
Assay: UV-Vis absorption titration at […] nm
Format: binding

Human serum albumin (HSA), sequence (P02768 25-609): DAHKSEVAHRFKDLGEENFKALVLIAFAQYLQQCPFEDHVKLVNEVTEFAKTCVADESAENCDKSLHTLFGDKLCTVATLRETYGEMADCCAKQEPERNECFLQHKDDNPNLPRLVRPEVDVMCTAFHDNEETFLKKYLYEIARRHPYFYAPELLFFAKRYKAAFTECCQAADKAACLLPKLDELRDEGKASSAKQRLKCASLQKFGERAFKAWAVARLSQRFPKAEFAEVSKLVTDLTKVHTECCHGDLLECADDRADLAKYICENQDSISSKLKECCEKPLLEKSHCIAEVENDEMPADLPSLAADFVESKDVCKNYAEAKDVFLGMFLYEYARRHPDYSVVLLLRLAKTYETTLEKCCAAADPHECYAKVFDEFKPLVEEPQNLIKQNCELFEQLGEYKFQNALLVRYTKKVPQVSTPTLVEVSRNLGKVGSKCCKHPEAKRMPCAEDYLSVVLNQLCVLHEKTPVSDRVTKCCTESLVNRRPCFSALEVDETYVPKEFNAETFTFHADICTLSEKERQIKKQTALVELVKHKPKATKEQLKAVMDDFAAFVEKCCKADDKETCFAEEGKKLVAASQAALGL

- Kd: 990 µM
SMILES: CCCc1nc2c(C)cc(-c3nc4ccccc4n3C)cc2n1Cc1ccc(-c2ccccc2C(=O)O)cc1 [TLM]
